Reference: patent publication US10183009B2, “Therapeutic compounds and uses thereof” (GENENTECH, INC., priority 2014, dated 2019)

What follows are compounds tested against BRD4(BD1) (Homo sapiens (Human), UniProt O60885) (assay: BRD4 AlphaLisa Binding Assay).

IC50 [µM] | Structure (SMILES)
2.1 | CN(C)C(=O)c1cccc(-c2cn(CCC3CC3)c(=O)c3[nH]ccc23)c1 [Example 4, 3-[6-(2-cyclopropylethyl)-7-oxo-1H-pyrrolo[2,3-c]pyridin-4-yl]-N,N-dimethyl-benzamide]
6.4 | CN(C)C(=O)c1cccc(-c2cn(CC3CCCC3)c(=O)c3[nH]ccc23)c1 [Example 5, 3-[6-(cyclopentylmethyl)-7-oxo-1H-pyrrolo[2,3-c]pyridin-4-yl]-N,N-dimethyl-benzamide]
2.7 | CC/C=C/Cn1cc(-c2cccc(C(=O)N(C)C)c2)c2cc[nH]c2c1=O [Example 7, N,N-dimethyl-3-[7-oxo-6-[(E)-pent-2-enyl]-1H-pyrrolo[2,3-c]pyridin-4-yl]benzamide]
15 | CN(C)C(=O)c1cccc(-c2cn(CC3CCCCC3)c(=O)c3[nH]ccc23)c1 [Example 9, 3-[6-(cyclohexylmethyl)-7-oxo-1H-pyrrolo[2,3-c]pyridin-4-yl]-N,N-dimethyl-benzamide]
3.6 | CN(C)C(=O)c1cccc(-c2cn(CC3CCC3)c(=O)c3[nH]ccc23)c1 [Example 11, 3-[6-(cyclobutylmethyl)-7-oxo-1H-pyrrolo[2,3-c]pyridin-4-yl]-N,N-dimethyl-benzamide]
12 | CN(C)C(=O)c1cccc(-c2cn(CCC3CCCCC3)c(=O)c3[nH]ccc23)c1 [Example 12, 3-[6-(2-cyclohexylethyl)-7-oxo-1H-pyrrolo[2,3-c]pyridin-4-yl]-N,N-dimethyl-benzamide]
4.5 | CCCCCn1cc(-c2cccc(C(=O)N(C)C)c2)c2cc[nH]c2c1=O [Example 13, N,N-dimethyl-3-(7-oxo-6-pentyl-1H-pyrrolo[2,3-c]pyridin-4-yl)benzamide]
8 | CC(C)Cn1cc(-c2cccc(C(=O)N(C)C)c2)c2cc[nH]c2c1=O [Example 16, 3-(6-isobutyl-7-oxo-1H-pyrrolo[2,3-c]pyridin-4-yl)-N,N-dimethyl-benzamide]
0.89 | C/C=C/Cn1cc(-c2ccc(C(N)=O)c(F)c2)c2cc[nH]c2c1=O [Example 20, 4-[6-[(E)-but-2-enyl]-7-oxo-1H-pyrrolo[2,3-c]pyridin-4-yl]-2-fluoro-benzamide]
2.1 | C/C=C/Cn1cc(-c2ccc(C(C)(C)C)cc2)c2cc[nH]c2c1=O [Example 23, 6-[(E)-but-2-enyl]-4-(4-tert-butylphenyl)-1H-pyrrolo[2,3-c]pyridin-7-one]
0.83 | C/C=C/Cn1cc(-c2cccc(C(=O)NC3CC3)c2)c2cc[nH]c2c1=O [Example 26, 3-[6-[(E)-but-2-enyl]-7-oxo-1H-pyrrolo[2,3-c]pyridin-4-yl]-N-cyclopropyl-benzamide]
0.51 | C/C=C/Cn1cc(-c2ccc(C(=O)NC3CC3)cc2)c2cc[nH]c2c1=O [Example 28, 4-[6-[(E)-but-2-enyl]-7-oxo-1H-pyrrolo[2,3-c]pyridin-4-yl]-N-cyclopropyl-benzamide]
1.6 | C/C=C/Cn1cc(-c2ccc(C(C)C)cc2)c2cc[nH]c2c1=O [Example 31, 6-[(E)-but-2-enyl]-4-(4-isopropylphenyl)-1H-pyrrolo[2,3-c]pyridin-7-one]
1.2 | C/C=C/Cn1cc(-c2cccc(C(N)=O)c2F)c2cc[nH]c2c1=O [Example 39, 3-[6-[(E)-but-2-enyl]-7-oxo-1H-pyrrolo[2,3-c]pyridin-4-yl]-2-fluoro-benzamide]
1.8 | C/C=C/Cn1cc(-c2cc(C(N)=O)ccc2F)c2cc[nH]c2c1=O [Example 40, 3-[6-[(E)-but-2-enyl]-7-oxo-1H-pyrrolo[2,3-c]pyridin-4-yl]-4-fluoro-benzamide]
0.98 | C/C=C/Cn1cc(-c2cc(C(=O)NC3CC3)ccc2OC)c2cc[nH]c2c1=O [Example 63, 3-[6-[(E)-but-2-enyl]-7-oxo-1H-pyrrolo[2,3-c]pyridin-4-yl]-N-cyclopropyl-4-methoxy-benzamide]
1.6 | C/C=C/Cn1cc(-c2cc(C(=O)NC3CCOC3)ccc2OC)c2cc[nH]c2c1=O (stereo not shown) [Example 65, 3-[6-[(E)-but-2-enyl]-7-oxo-1H-pyrrolo[2,3-c]pyridin-4-yl]-4-methoxy-N-tetrahydrofuran-3-yl-benzamide]
0.32 | C/C=C/Cn1cc(-c2cc(C(=O)NCC(F)F)ccc2OC)c2cc[nH]c2c1=O [Example 69, 3-[6-[(E)-but-2-enyl]-7-oxo-1H-pyrrolo[2,3-c]pyridin-4-yl]-N-(2,2-difluoroethyl)-4-methoxy-benzamide]
1.3 | C/C=C/Cn1cc(-c2cc(C(=O)NC3CCC3)ccc2OC)c2cc[nH]c2c1=O [Example 75, 3-[6-[(E)-but-2-enyl]-7-oxo-1H-pyrrolo[2,3-c]pyridin-4-yl]-N-cyclobutyl-4-methoxy-benzamide]
1.2 | C/C=C/Cn1cc(-c2cc(C(=O)NCC3CC3)ccc2OC)c2cc[nH]c2c1=O [Example 76, 3-[6-[(E)-but-2-enyl]-7-oxo-1H-pyrrolo[2,3-c]pyridin-4-yl]-N-(cyclopropylmethyl)-4-methoxy-benzamide]
1.9 | C/C=C/Cn1cc(-c2ccc3c(c2)NC(C)CC(=O)N3)c2cc[nH]c2c1=O (stereo not shown) [Example 84, 7-[6-[(E)-but-2-enyl]-7-oxo-1H-pyrrolo[2,3-c]pyridin-4-yl]-4-methyl-1,3,4,5-tetrahydro-1,5-benzodiazepin-2-one]

The compounds below were run against BRD9 (Homo sapiens (Human), UniProt Q9H8M2) (assay: BRD9 AlphaLisa Binding Assay).
Description: After 20 minutes incubation at room temperature AlphaLisa Streptavidin Acceptor Beads (Perkin-A[…]) and AlphaLisa Nickel donor beads (Perkin AS 10 ID) were added to a final concentration of 15 ug/mL each.

BRD9, sequence (Q9H8M2 134-239 limits assumed): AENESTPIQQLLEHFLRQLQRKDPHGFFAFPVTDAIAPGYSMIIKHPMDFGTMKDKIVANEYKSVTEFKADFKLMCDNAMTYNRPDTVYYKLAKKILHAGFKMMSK

IC50 [µM] | Structure (SMILES)
0.022 | C/C=C/Cn1cc(-c2cc(Cl)c(C(=O)N3CCOCC3)cn2)c2cc(C)[nH]c2c1=O [Example 104, 6-[(E)-but-2-enyl]-4-[4-chloro-5-(morpholine-4-carbonyl)-2-pyridyl]-2-methyl-1H-pyrrolo[2,3-c]pyridin-7-one]
0.083 | C/C=C/Cn1cc(-c2cnc(C(=O)N3CCOCC3)nc2)c2cc(C)[nH]c2c1=O [Example 105, 6-[(E)-but-2-enyl]-2-methyl-4-[2-(morpholine-4-carbonyl)pyrimidin-5-yl]-1H-pyrrolo[2,3-c]pyridin-7-one]
0.1 | C/C=C/Cn1cc(-c2ccc(C(C)(C)O)cc2OC)c2cc(C)[nH]c2c1=O [Example 107, 6-[(E)-but-2-enyl]-4-[4-(1-hydroxy-1-methyl-ethyl)-2-methoxy-phenyl]-2-methyl-1H-pyrrolo[2,3-c]pyridin-7-one]
0.006 | C/C=C/Cn1cc(-c2cc(C(=O)NCc3cnccn3)ccc2OC)c2cc(C)[nH]c2c1=O [Example 109, 3-[6-[(E)-but-2-enyl]-2-methyl-7-oxo-1H-pyrrolo[2,3-c]pyridin-4-yl]-4-methoxy-N-(pyrazin-2-ylmethyl)benzamide]
0.039 | C/C=C/Cn1cc(-c2ncc(C(=O)N3CCN(C)CC3)cc2OC)c2cc(C)[nH]c2c1=O [Example 110, 6-[(E)-but-2-enyl]-4-[3-methoxy-5-(4-methylpiperazine-1-carbonyl)-2-pyridyl]-2-methyl-1H-pyrrolo[2,3-c]pyridin-7-one]
0.008 | C/C=C/Cn1cc(-c2ccc(C(=O)N3CCC(C(=O)O)CC3)c(Cl)c2)c2cc(C)[nH]c2c1=O [Example 112, 1-[4-[6-[(E)-but-2-enyl]-2-methyl-7-oxo-1H-pyrrolo[2,3-c]pyridin-4-yl]-2-chloro-benzoyl]piperidine-4-carboxylic acid]
0.003 | C/C=C/Cn1cc(-c2ccc(C(=O)N3CCC(C(N)=O)CC3)c(Cl)c2)c2cc(C)[nH]c2c1=O [Example 113, (E)-1-(4-(6-(but-2-en-1-yl)-2-methyl-7-oxo-6,7-dihydro-1H-pyrrolo[2,3-c]pyridin-4-yl)-2-chlorobenzoyl)piperidine-4-carboxamide]
0.003 | C/C=C/Cn1cc(-c2ccc(C(=O)N3CCOCC3)c(OC(C)C)c2)c2cc(C)[nH]c2c1=O [Example 114, 6-[(E)-but-2-enyl]-4-[3-isopropoxy-4-(morpholine-4-carbonyl)phenyl]-2-methyl-1H-pyrrolo[2,3-c]pyridin-7-one]
0.005 | C/C=C/Cn1cc(-c2ccc(C(=O)N3CCOCC3)c(OCC3CC3)c2)c2cc(C)[nH]c2c1=O [Example 115, 6-[(E)-but-2-enyl]-4-[3-(cyclopropylmethoxy)-4-(morpholine-4-carbonyl)phenyl]-2-methyl-1H-pyrrolo[2,3-c]pyridin-7-one]
0.004 | C/C=C/Cn1cc(-c2ccc(C(=O)N3CCNCC3)c(Cl)c2)c2cc(C)[nH]c2c1=O [Example 116, (E)-6-(but-2-en-1-yl)-4-(3-chloro-4-(piperazine-1-carbonyl)phenyl)-2-methyl-1H-pyrrolo[2,3-c]pyridin-7(6H)-one]
0.005 | C/C=C/Cn1cc(-c2ccc(C(=O)N3CC(n4ccc(N)n4)C3)c(Cl)c2)c2cc(C)[nH]c2c1=O [Example 117, (E)-4-(4-(3-(3-amino-1H-pyrazol-1-yl)azetidine-1-carbonyl)-3-chlorophenyl)-6-(but-2-en-1-yl)-2-methyl-1H-pyrrolo[2,3-c]pyridin-7(6H)-one]
0.009 | C/C=C/Cn1cc(-c2ccc(C(=O)N3CC(n4ccc(N)n4)C3)cc2)c2cc(C)[nH]c2c1=O [Example 118, 4-[4-[3-(3-aminopyrazol-1-yl)azetidine-1-carbonyl]phenyl]-6-[(E)-but-2-enyl]-2-methyl-1H-pyrrolo[2,3-c]pyridin-7-one]
0.003 | C/C=C/Cn1cc(-c2cc(C(=O)NCc3cncnc3)ccc2OC)c2cc(C)[nH]c2c1=O [Example 120, 3-[6-[(E)-but-2-enyl]-2-methyl-7-oxo-1H-pyrrolo[2,3-c]pyridin-4-yl]-4-methoxy-N-(pyrimidin-5-ylmethyl)benzamide]
0.017 | CCCCn1cc(-c2cc(OC)c(C(=O)N3CCOCC3)cc2OC)c2cc(C)[nH]c2c1=O [Example 121, 6-butyl-4-[2,5-dimethoxy-4-(morpholine-4-carbonyl)phenyl]-2-methyl-1H-pyrrolo[2,3-c]pyridin-7-one]
0.18 | CCCCn1cc(-c2ncc(C(=O)N3CCN(C)CC3)cc2OC)c2cc(C)[nH]c2c1=O [Example 122, 6-butyl-4-[3-methoxy-5-(4-methylpiperazine-1-carbonyl)-2-pyridyl]-2-methyl-1H-pyrrolo[2,3-c]pyridin-7-one]
0.21 | CCCCn1cc(-c2ncc(C(=O)N3CCOCC3)cc2OC)c2cc(C)[nH]c2c1=O [Example 123, 6-butyl-4-[3-methoxy-5-(morpholine-4-carbonyl)-2-pyridyl]-2-methyl-1H-pyrrolo[2,3-c]pyridin-7-one]
